Data from the supplement of paper PMC10307832.

Experiments:
Selisistat + Trametinib = compound: C1CC(C2=C(C1)C3=C(N2)C=CC(=C3)Cl)C(=O)N [Selisistat] + CC(=O)Nc1cccc(-n2c(=O)n(C3CC3)c(=O)c3c(Nc4ccc(I)cc4F)n(C)c(=O)c(C)c32)c1 [Trametinib] (partner 0.02 µM); test: relative viability (nuclei count vs DMSO), 5 days (fraction); higher = more cells survive
How it was run: (§1)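 A single step with final 0.05% Triton X-100, 1% formaldehyde and 1 ug/ml Hoechst fixed the cells and stained nuclei 5 days after treatment. Lung cancer cell lines in 1536-well plates had been treated by pin tool the day after seeding with one drug alone or a fixed anchor-drug dose plus five library-drug doses (not always all listed) in √10 steps, and nuclei were counted on 4× images. Relative viability is the ratio of nuclei in treated wells to nuclei in vehicle wells, taken as the median of duplicate plates.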

Serdemetan + Dasatinib = compound: c1ccc2c(CCNc3ccc(Nc4ccncc4)cc3)c[nH]c2c1 [Serdemetan] + Cc1nc(Nc2ncc(C(=O)Nc3c(C)cccc3Cl)s2)cc(N2CCN(CCO)CC2)n1 [Dasatinib] (partner 0.075 µM); test: as above
How it was run: as §1

| Cell Line | relative viability (Selisistat + Trametinib; first compound 0.4 µM) | relative viability (Selisistat + Trametinib; first compound 1.265 µM) | relative viability (Selisistat + Trametinib; first compound 4 µM) | relative viability (Selisistat + Trametinib; first compound 12.65 µM) | relative viability (Selisistat + Trametinib; first compound 40 µM) | relative viability (Serdemetan + Dasatinib; first compound 0.04 µM) | relative viability (Serdemetan + Dasatinib; first compound 0.1265 µM) | relative viability (Serdemetan + Dasatinib; first compound 1.265 µM) | relative viability (Serdemetan + Dasatinib; first compound 4 µM) | relative viability (Serdemetan + Dasatinib; first compound 0.4 µM) |
| --- | --- | --- | --- | --- | --- | --- | --- | --- | --- | --- |
| HCC-44 | 1.1 | 1.22 | 1.13 | 1.07 | 1.05 |  |  |  |  |  |
| HCC-827 | 0.529 | 0.575 | 0.546 | 0.572 | 0.559 | 0.372 | 0.231 | 0.229 | 0.138 |  |
| NCI-H1623 |  |  |  |  |  | 0.549 | 0.628 | 0.442 | 0.562 | 0.359 |
| NCI-H2347 | 0.266 | 0.245 |  | 0.298 | 0.285 | 0.336 | 0.305 | 0.303 | 0.237 | 0.286 |
| PC-14 | 0.723 | 0.655 | 0.823 | 0.825 | 0.671 | 0.262 | 0.247 | 0.308 | 0.147 | 0.115 |
| NCI-H1651 | 0.855 | 0.871 | 0.799 | 0.842 | 0.817 | 0.296 | 0.319 | 0.237 | 0.186 | 0.281 |
| HARA | 0.659 | 0.962 |  | 0.509 | 0.377 | 0.336 | 0.28 | 0.185 | 0.178 | 0.235 |
| NCI-H1650 | 0.564 | 0.572 | 0.531 | 0.577 | 0.465 | 0.297 | 0.345 | 0.34 | 0.268 | 0.272 |
| NCI-H1395 | 1.13 | 0.939 |  | 0.979 | 0.917 | 0.396 | 0.42 | 0.406 | 0.281 | 0.481 |
| LU99A | 0.596 | 0.561 | 0.552 | 0.52 | 0.575 | 0.545 | 0.515 | 0.217 | 0.232 | 0.592 |
| NCI-H1355 | 0.422 | 0.462 | 0.422 | 0.438 | 0.43 | 0.78 | 0.759 | 0.602 | 0.76 | 0.601 |
| HCC-78 | 0.783 | 0.779 | 0.696 | 0.744 | 0.732 | 0.408 | 0.316 | 0.307 | 0.299 | 0.331 |
| NCI-H1563 |  |  |  |  |  | 0.496 | 0.466 | 0.457 | 0.461 | 0.452 |
| HCC-15 | 0.453 | 0.433 |  | 0.37 | 0.468 | 0.676 | 0.608 | 0.541 | 0.49 | 0.562 |
| EKVX | 0.383 | 0.392 | 0.324 | 0.379 | 0.48 | 0.523 | 0.645 | 0.355 | 0.371 |  |
| NCI-H2087 | 0.194 | 0.164 |  | 0.22 | 0.202 | 0.979 | 0.712 | 0.418 | 0.27 | 0.763 |
| LK-2 | 0.994 | 0.677 | 0.711 | 0.656 | 1.01 | 0.315 | 0.269 | 0.233 | 0.379 | 0.334 |
| NCI-H1437 | 0.558 | 0.485 | 0.488 | 0.5 | 0.477 | 0.347 | 0.352 | 0.274 | 0.289 | 0.388 |
| COR-L23 | 0.66 | 0.597 | 0.656 | 0.614 | 0.645 | 0.46 | 0.468 | 0.379 | 0.452 | 0.41 |

| Cell Line | relative viability (Selisistat + Trametinib; first compound 0.4 µM) | relative viability (Selisistat + Trametinib; first compound 1.265 µM) | relative viability (Selisistat + Trametinib; first compound 4 µM) | relative viability (Selisistat + Trametinib; first compound 12.65 µM) | relative viability (Selisistat + Trametinib; first compound 40 µM) | relative viability (Serdemetan + Dasatinib; first compound 0.04 µM) | relative viability (Serdemetan + Dasatinib; first compound 0.1265 µM) | relative viability (Serdemetan + Dasatinib; first compound 1.265 µM) | relative viability (Serdemetan + Dasatinib; first compound 4 µM) | relative viability (Serdemetan + Dasatinib; first compound 0.4 µM) |
| --- | --- | --- | --- | --- | --- | --- | --- | --- | --- | --- |
| ABC-1 |  |  |  |  |  | 0.541 | 0.575 | 0.402 | 0.429 | 0.585 |
| SW 900 | 1.03 | 0.87 | 0.78 | 0.995 | 0.78 | 0.502 | 0.471 | 0.385 | 0.345 | 0.484 |
| NCI-H838 | 0.592 | 0.482 | 0.511 | 0.516 | 0.507 | 0.291 | 0.345 | 0.276 | 0.273 | 0.272 |
| NCI-H1648 | 0.448 | 0.399 |  | 0.453 | 0.431 |  |  |  |  |  |
| A-427 | 0.842 | 0.801 |  | 0.776 | 0.775 | 0.666 | 0.653 | 0.64 | 0.603 | 0.655 |
| NCI-H1792 | 0.493 | 0.38 |  | 0.44 | 0.44 | 0.746 | 0.773 | 0.533 | 0.493 | 0.747 |
| LCLC-97TM1 | 0.192 | 0.208 |  | 0.163 | 0.217 | 0.824 | 0.971 |  | 0.748 | 0.823 |
| LCLC-103H | 0.682 | 0.731 | 0.75 | 0.651 | 0.711 | 0.466 | 0.434 | 0.331 | 0.482 | 0.539 |
| PC-3 [JPC-3] | 0.805 | 0.664 |  | 0.74 | 0.695 | 0.973 | 0.95 | 0.924 | 0.941 | 1.01 |
| BEN | 1.05 | 0.882 | 0.896 | 1.03 | 0.957 | 0.302 | 0.3 |  | 0.356 | 0.312 |
| NCI-H1666 | 0.839 | 0.833 | 0.987 | 0.839 | 0.83 | 0.797 | 0.736 | 0.597 | 0.663 | 0.829 |
| LC-2-ad | 0.973 | 0.96 | 0.898 | 0.662 | 0.95 | 0.495 | 0.634 | 0.501 | 0.475 | 0.519 |
| SK-LU-1 | 0.598 | 0.503 | 0.546 | 0.51 | 0.444 | 0.212 | 0.183 |  | 0.179 | 0.183 |
| ChaGo-K-1 | 0.895 | 0.886 | 0.881 | 0.895 | 0.888 | 0.587 | 0.562 | 0.249 | 0.24 | 0.572 |
| COR-L 105 | 0.45 | 0.421 | 0.421 | 0.442 | 0.512 | 0.326 | 0.351 | 0.319 | 0.337 | 0.306 |
| NCI-H1975 | 0.371 | 0.358 | 0.262 | 0.329 | 0.33 | 0.373 | 0.418 |  | 0.352 | 0.361 |
| NCI-H1993 | 0.519 | 0.496 |  | 0.518 | 0.573 | 0.578 | 0.698 | 0.507 | 0.461 | 0.517 |
| RERF-LC-KJ | 0.812 | 0.792 | 0.816 | 0.771 | 0.736 | 0.837 | 0.788 | 0.657 | 0.69 | 0.667 |
